Measurements: ChEMBL document CHEMBL2331527, “New imidazo[1,2-a]pyridines carrying active pharmacophores: synthesis and anticonvulsant studies” (Bioorg Med Chem Lett, 2013)

Columns and labels:
Mus musculus [1] = assay: Anticonvulsant activity against subcutaneous pentylenetetrazole-induced seizures in mouse assessed as onset time for tonic seizures at 10 mg/kg, ip measured after 0.5 hrs by pentylene tetrazole test (reference value: 385.5 +/-10.90 secs); assay type: functional; conditions: route intraperitoneal
Mus musculus [2] = assay: Anticonvulsant activity against subcutaneous pentylenetetrazole-induced seizures in mouse assessed as onset time for clonic seizures at 10 mg/kg, ip measured after 0.5 hrs by pentylene tetrazole test (reference value: 59.2 +/-1.11 secs); assay type: functional
Mus musculus [3] = assay: Anticonvulsant activity against maximal electroshock-induced seizures in NMRI mouse assessed as latency period for the onset of clonus at 10 mg/kg, ip measured after 0.5 hrs by maximal electroshock test (reference value: 2.18 +/-0.47 secs); assay type: functional; conditions: route intraperitoneal
Mus musculus [4] = assay: Anticonvulsant activity against maximal electroshock-induced seizures in NMRI mouse assessed as duration of tonic hindlimb extension at 10 mg/kg, ip measured after 0.5 hrs by maximal electroshock test (reference value: 15.35 +/-0.60%); assay type: functional; conditions: route intraperitoneal
Mus musculus [5] = assay: Neurotoxicity in ip dosed mouse assessed as minimum effective dose required to induce motor impairment measured after 4 hrs by Rotarod test; assay type: toxicity, organism-based; conditions: in vivo
Mus musculus [6] = assay: Neurotoxicity in ip dosed mouse assessed as minimum effective dose required to induce motor impairment measured after 0.5 hrs by Rotarod test; assay type: toxicity, organism-based; conditions: in vivo

Row | Compound | Time (Mus musculus [1]) [s] | Time (Mus musculus [2]) [s] | Time (Mus musculus [3]) [s] | Time (Mus musculus [4]) [s] | MED (Mus musculus [5]) | MED (Mus musculus [6])
1 | Cc1ccc(C2=NNC(c3c(-c4ccccc4)nc4c(C)cccn34)C2)cc1 (centres undefined) | 532.5 | 126.7 | 9.28 | 7.22 |  | 
2 | COc1nc(-c2ccc([N+](=O)[O-])cc2)cc(-c2c(-c3ccc(F)cc3)nc3c(C)cccn23)c1C#N | 469.2 | 115.7 | 9.13 | 7.01 |  | 
3 | Cc1cccn2c(-c3cc(-c4ccc(Cl)cc4)[nH]c(=O)c3C#N)c(-c3ccc(F)cc3)nc12 | 544.7 | 129.2 | 10.97 | 6.54 | Non-toxic | Non-toxic
4 | Cc1cccn2c(C3C=C(c4ccc(F)cc4)NC(=S)N3)c(-c3ccccc3)nc12 (centres undefined) | 454.7 | 90.83 | 10.91 | 6.87 | Non-toxic | Non-toxic
5 | Cc1ccc(-c2nc3c(C)cccn3c2C2CC(c3cccs3)=NN2)cc1 (centres undefined) | 530.8 | 117.7 | 9.33 | 7.27 | Non-toxic | Non-toxic
6 | Cc1cccn2c(-c3cc(-c4ccc([N+](=O)[O-])cc4)nc(N)n3)c(-c3ccc(F)cc3)nc12 | 435.8 | 85.33 | 8.8 | 8.67 |  | 
7 | Cc1ccc(-c2cc(-c3c(-c4ccccc4)nc4c(C)cccn34)nc(N)n2)cc1 | 454.7 | 90.83 | 8.72 | 8.52 | Non-toxic | Non-toxic
8 | Cc1ccc(-c2cc(-c3c(-c4ccc(F)cc4)nc4c(C)cccn34)nc(N)n2)cc1 | 593.2 | 171.4 | 8.16 | 8.15 | Non-toxic | Non-toxic
9 | Cc1cccn2c(-c3cc(-c4cccs4)nc(N)n3)c(-c3ccccc3)nc12 | 426.8 | 79.5 | 8.86 | 8.71 | Non-toxic | Non-toxic
10 | COc1nc(-c2ccc([N+](=O)[O-])cc2)cc(-c2c(-c3ccccc3)nc3c(C)cccn23)c1C#N | 426.8 | 79.32 | 8.72 | 8.52 | Non-toxic | Non-toxic
11 | Cc1ccc(C2=CC(c3c(-c4ccccc4)nc4c(C)cccn34)NC(=S)N2)cc1 (centres undefined) | 426.5 | 79.34 | 9.75 | 7.45 | Non-toxic | Non-toxic
12 | Cc1cccn2c(-c3cc(-c4ccc(Cl)cc4)nc(N)n3)c(-c3ccc(F)cc3)nc12 | 480.2 | 109.7 | 7.95 | 9.88 |  | 
13 | Cc1cccn2c(C3C=C(c4ccccc4)NC(=S)N3)c(-c3ccc(F)cc3)nc12 (centres undefined) | 479.7 | 107 | 8.04 | 8.13 | Non-toxic | Non-toxic
14 | Cc1cccn2c(-c3cc(-c4ccccc4)nc(N)n3)c(-c3ccc(F)cc3)nc12 | 469.2 | 115.7 | 8.11 | 8.27 | Non-toxic | Non-toxic
15 | COc1nc(-c2ccccc2)cc(-c2c(-c3ccc(F)cc3)nc3c(C)cccn23)c1C#N | 596 | 171.5 | 9.9 | 7.77 | Non-toxic | Non-toxic
16 | Cc1cccn2c(C3CC(c4ccccc4)=NN3)c(-c3ccc(F)cc3)nc12 (centres undefined) | 528.2 | 149.3 | 10.97 | 6.54 | Non-toxic | Non-toxic
17 | COc1nc(-c2ccc(C)cc2)cc(-c2c(-c3ccc(F)cc3)nc3c(C)cccn23)c1C#N | 611.5 | 335.3 | 7.94 | 9.84 | Non-toxic | Non-toxic
18 | COc1nc(-c2ccc(F)cc2)cc(-c2c(-c3ccccc3)nc3c(C)cccn23)c1C#N | 456.7 | 90.87 | 10.77 | 6.96 | Non-toxic | Non-toxic
19 | Cc1cccn2c(C3CC(c4ccc(Cl)cc4)=NN3)c(-c3ccc(F)cc3)nc12 (centres undefined) | 542.2 | 158.7 | 9.45 | 7.21 | Non-toxic | Non-toxic
20 | Cc1cccn2c(-c3cc(-c4ccc([N+](=O)[O-])cc4)[nH]c(=O)c3C#N)c(-c3ccc(F)cc3)nc12 | 641.5 | 171.8 | 10.88 | 6.61 | 100 mg/kg | Non-toxic
21 | COc1nc(-c2ccc(C)cc2)cc(-c2c(-c3ccccc3)nc3c(C)cccn23)c1C#N | 595.7 | 170.7 | 10.9 | 6.85 | Non-toxic | Non-toxic
22 | Cc1cccn2c(C3CC(c4ccc(F)cc4)=NN3)c(-c3ccccc3)nc12 (centres undefined) | 426.8 | 79.32 | 9.25 | 7.15 |  | 
23 | CN1C(=O)CN=C(c2ccccc2)c2cc(Cl)ccc21 [DIAZEPAM] |  |  | 13.17 |  | Non-toxic | Non-toxic
24 | Cc1cccn2c(C3C=C(c4ccc(Cl)cc4)NC(=S)N3)c(-c3ccc(F)cc3)nc12 (centres undefined) | 435 | 82.5 | 9.9 | 7.77 |  | 
